Laboratory results reported in US20210161997A1, “TREATING DISEASES VIA TARGETED MODULATION OF GENE SIGNALING NETWORKS” (Camp4 Therapeutics Corporation, priority 2018, published 2021).

Legend:
Assay type in all cases: cell-based
[1] = system: JAG1; assay: RNA-seq of JAG1 expression in compound-treated primary human hepatocytes; conditions: for JAG1 Fold Change (Log2): primary human hepatocytes; for Significant modulation of JAG1 (in words): summary of Table 6
Method: (§1) Human hepatocytes were obtained from two donors from Massachusetts General Hospital, namely MGH54 and MGH63, and one donor from Lonza, namely HUM4111B. Cryopreserved hepatocytes were cultured in plating media for 16 hours, transferred to maintenance media for 4 hours. Cultured on serum-free media for 2 hours, then a compound was added. The hepatocytes were maintained on the serum-free media for 16 hours prior to gene expression analysis. Primary human hepatocytes were stored in the vapor phase of a liquid nitrogen freezer (about -130° C.). Human hepatocytes cultured as described above were plated in 24-well format, adding 375,000 cells per well in a volume of 500 ul plating medium. Four hours before treatment, cells were washed with PBS and the medium was changed to either: fresh maintenance medium (complete) or modified maintenance medium. Compound stocks were prepared at 1000× final concentration and added in a 2-step dilution to the medium to reduce risk of a compound precipitating out of solution when added to the cells, and to ensure reasonable pipetting volumes. […] The plate was mixed by carefully swirling and after all wells were treated and returned to the incubator overnight. If desired, separate plates/wells were treated with vehicle-only controls and/or positive controls. If using multi-well plates, controls were included on each plate. After about 18 hours, cells were harvested for further analysis, e.g., ChIP-seq, RNA-seq, ATAC-seq, etc. This protocol is a modified version of the following protocols: MagMAX mirVana Total RNA Isolation Kit User Guide (Applied Biosystems #MAN0011131 Rev B.0), NEBNext Poly(A) mRNA Magnetic Isolation Module ([…]), and NEBNext Ultra Directional RNA Library Prep Kit for Illumina ([…]) (New England Biosystems #E74901). […] Two hundred μl of Lysis Binding Mix was used per well of the multiwell plate containing adherent cells (usually a 24-well plate). For mRNA isolation and library prep, the NEBNext Poly(A) mRNA Magnetic Isolation Module and Directional Prep kit was used. RNA isolated from cells above was quantified, and prepared in […] of each sample in 50 μl of nuclease-free water. This protocol may be run in microfuge tubes or in a 96-well plate. […] Genomic alignments were converted to transcriptome alignments based on reference transcript annotations from the Human GENCODE Gene Set release 24 (Harrow et al., Genome Res. […] Standard QC were applied (read integrity, mapping statistics, library complexity, fragment bias) to remove unsatisfactory samples. Differential gene expression was computed using the negative binomial model implemented by DESeq2 version 1.16.1 (Love et al., Genome Biol. (2014) 15(12):550). […] RNA-seq signals were also normalized by read depth and visualized using the UCSC browser. To identify small molecules that modulate target gene expression, primary human hepatocytes were prepared as a monoculture, and at least one small molecule compound was applied to the cells. RNA-seq was performed to determine the effects of the compounds on the expression of the target genes in hepatocytes. Fold change was calculated by dividing the level of expression in the cell system that had been perturbed by the level of expression in an unperturbed system.

[2] = system: NOTCH2; assay: RNA-seq of NOTCH2 expression in compound-treated primary human hepatocytes; conditions: for NOTCH2 Fold Change (Log2): primary human hepatocytes; for Significant modulation of NOTCH2 (in words): summary of Table 6
Method: as §1

[3] = system: LECT2; assay: RNA-seq of LECT2 expression in compound-treated primary human hepatocytes
Method: (§2) Human hepatocytes were obtained from two donors from Massachusetts General Hospital, namely MGH54 and MGH63, and one donor from Lonza, namely HUM4111B. Cryopreserved hepatocytes were cultured in plating media for 16 hours, transferred to maintenance media for 4 hours. Cultured on serum-free media for 2 hours, then a compound was added. The hepatocytes were maintained on the serum-free media for 16 hours prior to gene expression analysis. Primary human hepatocytes were stored in the vapor phase of a liquid nitrogen freezer (about −130° C.).
(§3) Human hepatocytes cultured as described above were plated in 24-well format, adding 375,000 cells per well in a volume of 500 ul plating medium. Four hours before treatment, cells were washed with PBS and the medium was changed to either: fresh maintenance medium (complete) or modified maintenance medium.
(§4) Compound stocks were prepared at 1000× final concentration and added in a 2-step dilution to the medium to reduce risk of a compound precipitating out of solution when added to the cells, and to ensure reasonable pipetting volumes. One at a time, each compound was first diluted 10-fold in warm (about 37° C.) modified maintenance medium (initial dilution=ID), mixed by vortexing, and the ID was diluted 100-fold into the cell culture (e.g. 5.1 ul into 1 well of a 24-well plate containing 0.5 mL medium). The plate was mixed by carefully swirling and after all wells were treated and returned to the incubator overnight. If desired, separate plates/wells were treated with vehicle-only controls and/or positive controls. If using multi-well plates, controls were included on each plate. After about 18 hours, cells were harvested for further analysis, e.g., ChIP-seq, RNA-seq, ATAC-seq, etc.
(§5) This protocol is a modified version of the following protocols: MagMAX mirVana Total RNA Isolation Kit User Guide (Applied Biosystems #MAN0011131 Rev B.0), NEBNext Poly(A) mRNA Magnetic Isolation Module (E7490), and NEBNext Ultra Directional RNA Library Prep Kit for Illumina (E7420) (New England Biosystems #E74901).
(§6) The MagMAX mirVana kit instructions (the section titled “Isolate RNA from cells” on pages 14-17) were used for isolation of total RNA from cells in culture. Two hundred μl of Lysis Binding Mix was used per well of the multiwell plate containing adherent cells (usually a 24-well plate).
(§7) For mRNA isolation and library prep, the NEBNext Poly(A) mRNA Magnetic Isolation Module and Directional Prep kit was used. RNA isolated from cells above was quantified, and prepared in […] of each sample in 50 μl of nuclease-free water. This protocol may be run in microfuge tubes or in a 96-well plate.
(§8) Standard QC were applied (read integrity, mapping statistics, library complexity, fragment bias) to remove unsatisfactory samples. […] Log 2 fold change and significance values were computed using PME count data (with replicates explicitly modeled versus pan-experiment controls), median ratio normalized, using maximum likelihood estimation rather than maximum a posteriori, and disabling the use of Cook's distance cutoff when determining acceptable adjusted p-values. […] RNA-seq signals were also normalized by read depth and visualized using the UCSC browser.
(§9) To identify small molecules that modulate target gene expression, primary human hepatocytes were prepared as a monoculture, and at least one small molecule compound was applied to the cells.
(§10) RNA-seq was performed to determine the effects of the compounds on the expression of the target genes in hepatocytes. Fold change was calculated by dividing the level of expression in the cell system that had been perturbed by the level of expression in an unperturbed system. Changes in expression having a p-value ≤0.05 were considered significant.
(§11) Significance was defined as an FPKM ≥1, a log 2(fold change) ≥0.5, and a q-value of ≤0.05 for all targets except for CPOX.

[4] = system: ANGPTL3; assay: RNA-seq of ANGPTL3 expression in compound-treated primary human hepatocytes; conditions: additional compounds (Table 13), linear fold change
Summary of the method: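 Cryopreserved primary human hepatocytes from three donors, plated at 375,000 cells/well, switched to complete or modified maintenance medium, then dosed with compound (stocks at 1000× final) for about 18 h. Poly(A) mRNA was sequenced directionally, mapped to GRCh38 with STAR, and gene-level abundance (counts, FPKM) estimated with RSEM against GENCODE 24.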

[5] = system: FN1; assay: RNA-seq of FN1 expression in compound-treated primary human hepatocytes; conditions: perturbed vs unperturbed, significance FPKM ≥1, log 2(fold change) ≥0.5, q-value ≤0.05
Method: as §2, §3, §4, §5, §6, §7
All pass filter reads from each sample were mapped against the human genome (assembly GRCh38/GCA_000001405.15 “no alt” analysis set merged with hs38d1/GCA_000786075.2) using two pass mapping via STAR version 2.5.3a (alignment parameters alignIntronMin=20; alignIntronMax=1000000; outFilterMismatchNmax=999; outFilterMismatchNoverLmax=0.05; outFilterType=BySJout; outFilterMultimapNmax=20; alignSJoverhangMin=8; alignSJDBoverhangMin=1; alignMatesGapMax=1000000) (Dobin et al., Bioinformatics (2012) 29(1):15-21). Genomic alignments were converted to transcriptome alignments based on reference transcript annotations from the Human GENCODE Gene Set release 24 (Harrow et al., Genome Res. (2012) 22(9): 1760-1774). Using unique and multimapped transcriptomic alignments, gene-level abundance estimates were computed using RSEM version 1.3.0 (Li and Dewey, BMC Bioinformatics (2011) 12:323) in a strand-aware manner, and including confidence interval sampling calculations, to arrive at posterior mean estimates (PME) of abundances (counts and normalized FPKM—fragments per kilobase of exon per million mapped fragments) from the underlying Bayesian model. Standard QC were applied (read integrity, mapping statistics, library complexity, fragment bias) to remove unsatisfactory samples.

[6] = system: UGT1A1; assay: RNA-seq of UGT1A1 expression in compound-treated primary human hepatocytes
Method: as §2, §3, §4, §5, §6, §7, §8, §9, §10, §11

Compound	LECT2 Fold Change (Log2) [3]	ANGPTL3-LINEAR FOLD CHANGE [4]	FN1 Fold Change (Log2) [5]	further results
740 Y-P	−0.62 Log2	–	–	JAG1 Fold Change (Log2) [1]: 0 Log2; NOTCH2 Fold Change (Log2) [2]: 0.66 Log2; Significant modulation of NOTCH2 (in words) [2]: significantly modulate only NOTCH2
CN1CCN(S(=O)(=O)c2ccc(-c3cnc(N)c(C(=O)Nc4cccnc4)n3)cc2)CC1 [AZD2858]	–	0.3186	−1.23 Log2	–
CN(C)C/C=C/C(=O)Nc1cc2c(Nc3ccc(F)c(Cl)c3)ncnc2cc1O[C@H]1CCOC1 [Afatinib]	−0.75 Log2	0.3078	−0.98 Log2	–
CCOC(=O)C1=C(COCCN)NC(C)=C(C(=O)OC)C1c1ccccc1Cl (stereo not shown) [Amlodipine Besylate]	−0.55 Log2	0.3035	−1.22 Log2	–
CCN1CCN(c2ccc(Nc3cc(N(C)C(=O)Nc4c(Cl)c(OC)cc(OC)c4Cl)ncn3)cc2)CC1 [BGJ398]	–	0.3368	−1.36 Log2	–
COc1cc2c(Oc3ccc4[nH]c(C)cc4c3F)ncnc2cc1OCCCN1CCCC1 [Cediranib]	–	0.4323	−0.79 Log2	–
CCN(CC)CCN(Cc1ccc(-c2ccc(C(F)(F)F)cc2)cc1)C(=O)Cn1c(SCc2ccc(F)cc2)nc(=O)c2c1CCC2 [Darapladib]	−0.55 Log2	0.4569	–	–
c1ccc2c(-c3cnn4cc(-c5ccc(N6CCNCC6)cc5)cnc34)ccnc2c1 [LDN193189]	–	0.4204	−0.87 Log2	JAG1 Fold Change (Log2) [1]: 2.07 Log2; Significant modulation of JAG1 (in words) [1]: significantly modulate only JAG1; NOTCH2 Fold Change (Log2) [2]: 0 Log2
Cc1[nH]c(/C=C2\C(=O)Nc3ccc(S(=O)(=O)Cc4c(Cl)cccc4Cl)cc32)c(C)c1C(=O)N1CCC[C@@H]1CN1CCCC1 [PHA-665752]	–	–	−1.14 Log2	–
CC(C)c1nc(CN(C)C(=O)N[C@H](C(=O)N[C@@H](Cc2ccccc2)C[C@H](O)[C@H](Cc2ccccc2)NC(=O)OCc2cncs2)C(C)C)cs1 [Ritonavir]	−1.00 Log2	–	–	UGT1A1 Fold Change (Log2) [6]: 0.63 Log2
CNC1CCC(N(Cc2cccc(-c3ccncc3)c2)C(=O)c2sc3ccccc3c2Cl)CC1 (stereo not shown) [Smoothened Agonist]	–	0.3035	−1.95 Log2	–
CN1CCN(CCCN2c3ccccc3Sc3ccc(C(F)(F)F)cc32)CC1 [TFP]	−0.91 Log2	0.2832	–	–
COc1cc2nccc(Oc3ccc(NC(=O)Nc4cc(C)on4)c(Cl)c3)c2cc1OC [Tivozanib]	–	0.4204	−0.8 Log2	–
CCOC(=O)N1c2ccc(C(F)(F)F)cc2[C@@H](N(Cc2cc(C(F)(F)F)cc(C(F)(F)F)c2)C(=O)OC)C[C@H]1CC [Torcetrapib]	−0.86 Log2	–	–	JAG1 Fold Change (Log2) [1]: 0.68 Log2; Significant modulation of JAG1 (in words) [1]: significantly modulate both JAG1 and NOTCH2; NOTCH2 Fold Change (Log2) [2]: 0.76 Log2; Significant modulation of NOTCH2 (in words) [2]: significantly modulate both JAG1 and NOTCH2
COc1nc(C)cnc1NS(=O)(=O)c1cccnc1-c1ccc(-c2nnco2)cc1 [Zibotentan]	−0.83 Log2	–	–	JAG1 Fold Change (Log2) [1]: 0 Log2; NOTCH2 Fold Change (Log2) [2]: 0.94 Log2; Significant modulation of NOTCH2 (in words) [2]: significantly modulate only NOTCH2
C[C@]12CC[C@@H]3c4ccc(O)cc4CC[C@H]3[C@@H]1CC[C@@H]2O [b-Estradiol]	−0.90 Log2	–	–	–
COc1nc(N)nc2c1ncn2[C@@H]1O[C@H](COP(=O)(N[C@@H](C)C(=O)OCC(C)(C)C)Oc2cccc3ccccc23)[C@@H](O)[C@@]1(C)O (stereo partly shown) [bms-986094 (inx-189)]	–	–	−1.00 Log2	–
